Experimental data as given in ChEMBL document CHEMBL3745651, “Flat SAR of P3-methylsulphonamide based small molecule legumain inhibitors” (Bioorg Med Chem Lett, 2016).
Converted amounts (≈) assume the structure as drawn.

Columns and labels:
[1] = target: T1, Legumain (Homo sapiens, UniProt Q99538); assay: Inhibition of recombinant human legumain using Z-Ala-Ala-Asn-MCA as substrate preincubated with protein followed by substrate addition measured every 2 mins for 60 mins by microplate reader analysis
T1 sequence (Q99538 whole entry): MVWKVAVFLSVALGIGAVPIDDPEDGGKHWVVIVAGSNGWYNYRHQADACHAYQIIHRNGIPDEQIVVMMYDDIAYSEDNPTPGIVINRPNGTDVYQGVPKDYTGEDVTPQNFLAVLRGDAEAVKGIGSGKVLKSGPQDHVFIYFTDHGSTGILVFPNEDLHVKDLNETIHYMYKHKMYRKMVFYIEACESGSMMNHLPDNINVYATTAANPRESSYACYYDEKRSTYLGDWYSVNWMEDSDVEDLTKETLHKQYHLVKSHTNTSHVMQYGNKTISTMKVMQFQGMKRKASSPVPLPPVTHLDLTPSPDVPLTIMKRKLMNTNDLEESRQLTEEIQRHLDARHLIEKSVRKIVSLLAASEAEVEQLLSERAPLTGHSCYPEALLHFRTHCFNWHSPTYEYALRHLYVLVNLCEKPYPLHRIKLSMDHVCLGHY

[2] = Intrinsic clearance in rat liver microsomes at 1 uM incubated for 50 mins by LC-MS/MS method in presence of NADPH; type: ADME; conditions: read-out: CLH
[3] = Kinetic solubility of compound in pH 7.4 PBS buffer after 90 mins by plate reader analysis; type: physicochemical; conditions: read-out: Kinetic_solubility
[4] = Intrinsic clearance in rat hepatocytes assessed per 10^6 cells at 1 uM incubated at 37 degC for 50 mins by LC-MS/MS method […]; type: ADME, cell-based, Hepatocyte; conditions: read-out: CLH
[5] = Intrinsic clearance in mouse liver microsomes at 1 uM incubated for 50 mins by LC-MS/MS method in presence of NADPH; type: ADME; conditions: read-out: CLH

Compound	IC50 [1]	other results
CCOc1cccc(-c2ccc(CN([C@@H](C)C(=O)N[C@H](C#N)CC(N)=O)S(C)(=O)=O)cc2)c1	586 nM	–
CC(C)Oc1cccc(-c2ccc(CN([C@H](C)C(=O)N[C@H](C#N)CC(N)=O)S(C)(=O)=O)cc2)c1	5050 nM	–
C[C@H](C(=O)N[C@H](C#N)CC(N)=O)N(Cc1ccc(-c2cc(F)cc(F)c2)cc1)S(C)(=O)=O	9250 nM	–
CCC[C@@H](C(=O)N[C@H](C#N)CC(N)=O)N(Cc1ccc(-c2cccc(F)c2)cc1)S(C)(=O)=O	4380 nM	–
CC(C)Oc1cccc(-c2ccc(CN([C@@H](C)C(=O)N[C@H](C#N)CC(N)=O)S(C)(=O)=O)cc2)c1	882 nM	–
CCCS(=O)(=O)N(Cc1ccc(-c2cccc(F)c2F)cc1)[C@@H](C)C(=O)N[C@H](C#N)CC(N)=O	6740 nM	–
CC[C@@H](C(=O)N[C@H](C#N)CC(N)=O)N(Cc1ccc(-c2cccc(F)c2F)cc1)S(C)(=O)=O	5850 nM	–
CCOc1cccc(-c2ccc(CN([C@H](C)C(=O)N[C@H](C#N)CC(N)=O)S(C)(=O)=O)cc2)c1	> 10000 nM	–
C[C@H](C(=O)N[C@H](C#N)CC(N)=O)N(Cc1ccc(-c2cccc(F)c2F)cc1)S(C)(=O)=O	1460 nM	–
C[C@H](C(=O)N[C@H](C#N)CC(N)=O)N(Cc1ccc(-c2ccc(F)c(F)c2)cc1)S(C)(=O)=O	6300 nM	–
COc1cccc(-c2ccc(CN([C@H](C)C(=O)N[C@H](C#N)CC(N)=O)S(C)(=O)=O)cc2)c1	5850 nM	–
CC(C(=O)N[C@H](C#N)CC(N)=O)N(Cc1ccc(-c2cccc(Cl)c2)cc1)S(C)(=O)=O (mixture of isomers)	425 nM	–

Second part, led by results:

IC50 [1]	Compound	other results
128 nM	C[C@@H](C(=O)N[C@H](C#N)CC(N)=O)N(Cc1ccc(-c2cccc(F)c2)cc1)S(C)(=O)=O	microsomal CLint at 1 µM [2]: 19 µL/min/mg; solubility kinetic at 1.5 h [3]: 185 µM (≈ 82.6 µg/mL); hepatocyte CLint at 1 µM [4]: 45 µL/min/1e6 cells; microsomal CLint at 1 µM [5]: 4 µL/min/mg
356 nM	C[C@@H](C(=O)N[C@H](C#N)CC(N)=O)N(Cc1ccc(-c2ccccc2F)cc1)S(C)(=O)=O	–
1090 nM	CCS(=O)(=O)N(Cc1ccc(-c2cccc(F)c2F)cc1)[C@@H](C)C(=O)N[C@H](C#N)CC(N)=O	–
252 nM	C[C@@H](C(=O)N[C@H](C#N)CC(N)=O)N(Cc1ccc(-c2ccc(F)c(F)c2)cc1)S(C)(=O)=O	–
1360 nM	C[C@@H](C(=O)N[C@H](C#N)CC(N)=O)N(Cc1ccc(-c2cc(F)cc(F)c2)cc1)S(C)(=O)=O	–
> 10000 nM	C[C@H](C(=O)N[C@H](C#N)CC(N)=O)N(Cc1ccc(-c2ccccc2F)cc1)S(C)(=O)=O	–
323 nM	C[C@@H](C(=O)N[C@H](C#N)CC(N)=O)N(Cc1ccc(-c2cccc(F)c2F)cc1)S(C)(=O)=O	microsomal CLint at 1 µM [2]: 17 µL/min/mg; solubility kinetic at 1.5 h [3]: 181 µM (≈ 84.1 µg/mL); hepatocyte CLint at 1 µM [4]: 38 µL/min/1e6 cells; microsomal CLint at 1 µM [5]: 3 µL/min/mg
378 nM	COc1cccc(-c2ccc(CN([C@@H](C)C(=O)N[C@H](C#N)CC(N)=O)S(C)(=O)=O)cc2)c1	microsomal CLint at 1 µM [2]: 38 µL/min/mg; solubility kinetic at 1.5 h [3]: 193 µM (≈ 88.5 µg/mL); hepatocyte CLint at 1 µM [4]: 69 µL/min/1e6 cells; microsomal CLint at 1 µM [5]: 24 µL/min/mg
2270 nM	CC(C)CS(=O)(=O)N(Cc1ccc(-c2cccc(F)c2)cc1)[C@@H](C)C(=O)N[C@H](C#N)CC(N)=O	–
2260 nM	C[C@H](C(=O)N[C@H](C#N)CC(N)=O)N(Cc1ccc(-c2cccc(F)c2)cc1)S(C)(=O)=O	–
7750 nM	CCC[C@@H](C(=O)N[C@H](C#N)CC(N)=O)N(Cc1ccc(-c2cccc(F)c2F)cc1)S(C)(=O)=O	–
